Results published in paper PMC4485237, “SPECT/CT Imaging of High-Risk Atherosclerotic Plaques using Integrin-Binding RGD Dimer Peptides” (Scientific Reports, 2015).

Molecular target: T1, integrin αvβ3 (Mus musculus, UniProt O54890+P43406)
T1 construct: from tissue; host or cells: aorta (atherosclerotic plaque and normal regions) of living ApoE-/- and wild-type C57BL/6J mice
T1 sequence (P43406 31-1044): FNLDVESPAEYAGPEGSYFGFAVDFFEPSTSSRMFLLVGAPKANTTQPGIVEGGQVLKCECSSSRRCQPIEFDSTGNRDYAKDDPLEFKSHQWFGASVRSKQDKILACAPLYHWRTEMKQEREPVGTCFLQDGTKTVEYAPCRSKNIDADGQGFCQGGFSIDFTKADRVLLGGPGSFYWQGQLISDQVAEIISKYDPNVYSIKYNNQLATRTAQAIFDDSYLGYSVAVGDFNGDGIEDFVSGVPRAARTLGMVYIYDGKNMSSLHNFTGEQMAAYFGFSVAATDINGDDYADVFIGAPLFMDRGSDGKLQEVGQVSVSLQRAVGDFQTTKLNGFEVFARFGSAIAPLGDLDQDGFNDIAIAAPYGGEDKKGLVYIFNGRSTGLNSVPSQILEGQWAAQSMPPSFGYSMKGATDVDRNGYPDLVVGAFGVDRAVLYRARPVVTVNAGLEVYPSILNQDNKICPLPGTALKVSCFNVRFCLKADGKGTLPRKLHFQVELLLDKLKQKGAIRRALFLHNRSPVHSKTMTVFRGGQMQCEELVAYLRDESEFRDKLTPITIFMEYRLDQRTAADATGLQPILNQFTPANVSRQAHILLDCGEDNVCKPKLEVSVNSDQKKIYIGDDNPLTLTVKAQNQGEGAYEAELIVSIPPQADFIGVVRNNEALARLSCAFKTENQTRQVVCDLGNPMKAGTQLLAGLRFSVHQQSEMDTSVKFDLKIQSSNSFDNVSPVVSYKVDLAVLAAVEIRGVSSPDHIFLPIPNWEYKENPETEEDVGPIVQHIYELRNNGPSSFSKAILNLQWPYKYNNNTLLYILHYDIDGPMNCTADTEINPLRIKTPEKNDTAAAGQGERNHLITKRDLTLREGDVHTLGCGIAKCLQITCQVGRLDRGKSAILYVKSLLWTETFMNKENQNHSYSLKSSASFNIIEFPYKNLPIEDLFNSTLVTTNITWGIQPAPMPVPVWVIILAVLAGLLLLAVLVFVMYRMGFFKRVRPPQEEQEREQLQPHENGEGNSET
T1 sequence (O54890 26-787): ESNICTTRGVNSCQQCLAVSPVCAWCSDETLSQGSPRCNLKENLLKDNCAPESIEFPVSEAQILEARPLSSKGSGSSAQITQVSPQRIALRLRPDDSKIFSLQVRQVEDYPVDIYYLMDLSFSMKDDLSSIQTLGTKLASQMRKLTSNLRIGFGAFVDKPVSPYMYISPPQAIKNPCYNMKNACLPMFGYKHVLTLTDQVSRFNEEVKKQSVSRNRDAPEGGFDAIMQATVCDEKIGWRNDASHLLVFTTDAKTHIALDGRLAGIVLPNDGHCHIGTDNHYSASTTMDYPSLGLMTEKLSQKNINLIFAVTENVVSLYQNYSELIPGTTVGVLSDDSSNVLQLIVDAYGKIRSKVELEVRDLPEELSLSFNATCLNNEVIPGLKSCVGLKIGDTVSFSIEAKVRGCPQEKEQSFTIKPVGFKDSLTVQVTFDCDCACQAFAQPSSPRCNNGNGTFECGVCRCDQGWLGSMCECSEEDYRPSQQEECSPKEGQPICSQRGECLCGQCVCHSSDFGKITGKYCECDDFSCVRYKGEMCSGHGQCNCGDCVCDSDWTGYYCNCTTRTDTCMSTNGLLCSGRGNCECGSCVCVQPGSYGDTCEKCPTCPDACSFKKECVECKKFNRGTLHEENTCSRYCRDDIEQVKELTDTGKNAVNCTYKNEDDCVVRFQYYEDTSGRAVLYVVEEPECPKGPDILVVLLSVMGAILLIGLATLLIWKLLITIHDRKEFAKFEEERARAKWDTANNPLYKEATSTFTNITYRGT
Assay: In vivo SPECT/CT imaging and ROI quantification of radiotracer uptake in aorta of atherosclerotic (ApoE-/-, high-cholesterol diet) and wild-type mice
Conditions: 30 min post-injection, RGD and RAD tracers in the same mouse on consecutive days
Experimental: All animal experiments were carried out in accordance with the approved guidelines by the Seoul National University Bundang Hospital Animal Care and Use Committee. Apolipoprotein E knock out mice (male, n = 10) and C57BL/6J mice (male, n = 3) were purchased from the Jackson Laboratory (Bar Harbor, Maine, USA) at 8–10 weeks of age. The ApoE-/- mice were maintained on a high-cholesterol diet (0.2% total cholesterol, Harlan Laboratories, Indianapolis, IN, USA) for 40 weeks. At the time of imaging experiment, the mice had substantial atherosclerotic lesion growth resembling vulnerable plaques in humans. Wild-type mice with the C57BL/6J genetic background had been maintained on a regular diet and were used for the disease controls.
We anesthetized mice with 2% isoflurane gas anesthesia. […] The analysis software HiSPECT (Version 1.0, Bioscan Inc., Poway, CA, USA) and InVivoScope (Version 1.43, Bioscan Inc., Poway, CA, USA) were used for image reconstruction and quantification, respectively. […] Manually drawn two-dimensional regions of interest (ROIs) or three-dimensional volumes of interest (VOIs) were used to determine the accumulated radioactivity in units of %ID/g (with decay corrected to the time of injection) using 37–55.5 MBq radioactivity of ^99mTc as the reference source.

Compound: [O]=[99Tc](=[O])(=[O])[O-] [^99mTc-pertechnetate]
- SPECT uptake in aortic arch region containing atherosclerotic plaques (in words): no specific accumulation
